Results on five molecules are retold here after paper PMC12758328 (Virulence, 2025).

For one test, the target named is T1, SpyGapDH (Streptococcus pyogenes, UniProt P0C0G7).
T1 sequence (P0C0G7 2-336): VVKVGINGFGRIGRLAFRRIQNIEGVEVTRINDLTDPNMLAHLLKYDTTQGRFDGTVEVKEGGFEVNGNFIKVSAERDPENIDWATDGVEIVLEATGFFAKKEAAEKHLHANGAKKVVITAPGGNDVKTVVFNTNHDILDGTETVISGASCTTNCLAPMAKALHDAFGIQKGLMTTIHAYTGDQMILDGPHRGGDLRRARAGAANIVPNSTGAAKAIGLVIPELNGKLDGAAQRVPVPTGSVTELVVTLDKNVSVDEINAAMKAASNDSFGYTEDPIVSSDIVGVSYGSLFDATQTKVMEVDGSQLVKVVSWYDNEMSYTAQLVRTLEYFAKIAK
The test can be described thus: NADH formation at […] nm. It is filed as biochemical. The settings on record: 10 mM NAD+, 10 mM phosphate, 200 mM Tricine pH 8.5.

The target of another test is T2, SpyGapN (Streptococcus pyogenes, UniProt Q99Z67).
T2 sequence (Q99Z67 1-475): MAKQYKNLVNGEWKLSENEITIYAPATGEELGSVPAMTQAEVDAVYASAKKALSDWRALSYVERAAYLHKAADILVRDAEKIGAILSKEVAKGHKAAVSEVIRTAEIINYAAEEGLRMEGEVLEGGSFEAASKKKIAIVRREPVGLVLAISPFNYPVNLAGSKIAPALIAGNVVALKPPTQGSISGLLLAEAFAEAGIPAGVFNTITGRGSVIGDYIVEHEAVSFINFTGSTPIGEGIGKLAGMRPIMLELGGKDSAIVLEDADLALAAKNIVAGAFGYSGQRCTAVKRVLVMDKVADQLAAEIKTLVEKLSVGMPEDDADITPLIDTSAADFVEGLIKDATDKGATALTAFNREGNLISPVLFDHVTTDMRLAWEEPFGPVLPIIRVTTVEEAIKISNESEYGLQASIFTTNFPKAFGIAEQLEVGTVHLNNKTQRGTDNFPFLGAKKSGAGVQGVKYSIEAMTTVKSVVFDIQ
Kind of test: NADPH formation at […] nm. It is filed as biochemical. Particulars: for inhibition at 40000 µM: read-out: % inhibition at 40 mM.

For the molecule `O=CC(O)COP(=O)(O)O` (racemic) [DL-glyceraldehyde 3-phosphate], the “NADH formation at 340 nm” value at SpyGapDH is “To measure the GapDH activity, the assay mixture contained”. On to `Nc1cncnc1` [R65, Pyrimidine-5-amine], for which the inhibition at 40000 µM on SpyGapN was roughly 42%. On the same count and under the same terms, with `Oc1ccnnc1` [R76, 4-Hydroxypyridazine] the figure was roughly 16%.

`O=S(=O)(O)C(O)C(O)S(=O)(=O)O` (centres unmarked) [compound 26, 1,2-dihydroxyethane-1,2-disulfonate]: at SpyGapN (read-out: % inhibition at 8 mM), the inhibition at 8000 µM is roughly 50%. Consider “(ethoxyoxydophosphanyl)formate [compound 32]”, for which the “% inhibition at 8 mM” value on SpyGapN (2 mM DL-G3P, 10 mM NADP+, 200 mM Tricine pH 8.5) was ~ 25%.
